Five compounds from patent US20240124467A1, “FUSED PYRIMIDINE COMPOUNDS AS INHIBITORS OF MENIN-MLL INTERACTION” (Biomea Fusion, Inc., priority 2020, published 2024) can be followed below.

The structures appear in SMILES notation. Where two headings read alike, the source gives them in different places.

What all share (type): cell-based
One assay has as its system K-562. Description: Cell proliferation inhibition (CellTiter-Glo), K-562 cells. The following applies: Homo sapiens, K-562 (BCR-ABL), Table 3. A digest of the protocol:
(§1)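 Leukemia lines in RPMI-1640/10% FBS at 37° C. were exposed in duplicate to seven compound concentrations (5.00×10^−6 to 6.86×10^−9 M), with 0.2% DMSO as 100% proliferation. At day 4 cells were diluted 1:4 in fresh medium containing compound. Viability was read by CellTiter-Glo luminescence at day 4 and day 7.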
(Cellular ATP, detected with luciferase, serves as a proxy for viable cell number.)

The test system of a further assay is MOLM-13. Kind of assay: Cell proliferation inhibition (CellTiter-Glo), MOLM-13 cells. The conditions noted are these: Homo sapiens, MOLM-13 (MLL-AF9), Table 3. A digest of the protocol:
as §1

For the next assay, the system named is MV4-11. Kind of assay: Cell proliferation inhibition (CellTiter-Glo), MV4-11 cells. The conditions noted are these: Homo sapiens, MV4-11 (MLL-AF4), Table 3. In a few lines:
as §1

The subject of the next assay is OCI-AML3. Kind of assay: Cell proliferation inhibition (CellTiter-Glo), OCI-AML3 cells. The following applies: Homo sapiens. Here is the method:
(§2) The present example evaluates the ability of compounds described herein, inhibitors of Menin/MLL interaction, to inhibit cell proliferation. The proliferation inhibitory effect was investigated in human MLL-leukemia cells selected on the bases of MLL fusion proteins and listed in the table below.
(§3) ATP is present in all metabolically active cells and is considered as a marker for cell viability and proliferation. The metabolic cell activity was determined using the CellTiter-Glo kit from Promega, an ATP monitoring system based on the production of luminescence by the reaction of ATP with added UltraGlo® recombinant luciferase (Kawano et al., 2016, PLOS One, 8:11(7):e0158888), according to the supplier's experimental recommendations. The assay is based on a 96 well plate format. All experiments were carried out in duplicate in one test occasion.
(§4) Test items were dissolved at 20 mM in DMSO with purity ≥99.9% (Sigma catalog no. D8418) and stored at −20° C. Cells were maintained in RPMI-1640 medium (Invitrogen catalog no. 618700) supplemented with 10% of Heat Inactivated FBS (Invitrogen catalog no. 10500) and 1% Pen-Strep (Invitrogen catalog no. 15140) and cultured at 37° C. in a humidified incubator with 5% CO2. Cell lines were grown in suspension and the cell density was maintained in a range of 5×10^4-1×10^6 viable cells/ml where possible. Cells were pelleted at 130 g×5 min.
(§5) Serial dilutions of compounds 1 to 3 in DMSO 100% were prepared starting from a 2.5 mM solutions (prepared by diluting 1:8 the 20 mM stock solution) to generate a 7 point concentration response curve (CRC). Seven concentrations of test compounds (e.g., 5.00×10^−6-1.67×10^−6-5.56×10^−7-1.85×10^−7-6.17×10^−8-2.06×10^−8-6.86×10^−9 M) were assessed in duplicate in an individual test occasion in parallel in the selected cell lines. KO-539 was used as a reference compound and tested in duplicate at seven similar concentrations. 100% of proliferation was represented by the untreated cells (0.2% DMSO).
(§6) Cell proliferation inhibition was monitored at both the following end points: Day 4 (T4) and Day 7 (T7). For the appropriate cell density during the exponential cell growth and re-supply with fresh compound solution at T4, cells were diluted (1:4) with fresh medium containing the compound concentration (1×).
(§7) For each plate to test, one 0.4 μL copy plate and four 0.3 μL copy plates were stamped into 96-well plates not treated for cell adhesion (Sarstedt—cat. no. 82.1581.001) by acoustic liquid handling (Echo) at a concentration which was 500 fold the final assay concentration. Stamped plates were stored at −20° C.
(§8) On Day 0, the day of the experiment cell line suspensions were counted by Cell Viability Analyser, Vi-CELL (Beckman Coulter AY15292), and diluted with fresh medium to obtain the following cell densities: K-562 500 c/ml, MOLM-13 1,000 c/ml, MV4-11 10,000 c/ml, OCI-AML-3 500 c/ml, and U-937 500-1,000 c/ml. 200 μL/well and 150 μL/well of cell suspension were added into the 0.4 μL/well and 0.3 μL/well compound plates, respectively. Cell plate containing 200 μL/well suspension were incubated at 37° C. in a humidified incubator with 5% CO2. From each well of the 150 μL/well cell assay plate, 100 μL were harvested and transferred into a 96-well Optiplate (Perkin Elmer, cat. no. 6005290). Cell viability was measured as described below.
(§9) On Day 4, 150p/well of fresh medium was added into a new 0.3 μL/well copy compound plates. From each well of the 200 μL/well cell assay plate, 100 μL was sampled for the cell viability measurement as described below. 50p was harvested and added to the 150p/well compound plate prepared as described in the first point to dilute 1:4 the cell suspension. The cell assay plate diluted and containing 200 μL/well suspension was incubated at 37° C. in a humidified incubator with 5% CO2.
(§10) On Day 4, 150p/well of fresh medium was added into a new 0.3 μL/well copy compound plates. […]

A further assay has as its system U-937. Description: Cell proliferation inhibition (CellTiter-Glo), U-937 cells. The following applies: Homo sapiens, U-937 (MLL-wt), Table 3. Here is the method:
as §2, §3, §4, §5, §6, §7, §8, §9, §10

The mark [1] stands for this setting: K562, 96 h, 4 d, read-out: K-562 IC50 μM 4 d.
Where [2] appears, read: K562, 168 h, 7 d, read-out: K-562 IC50 μM 7 d.
Setting [3] is: 96 h, 4 d, read-out: MOLM13 μM 4 d.
[4] abbreviates: 168 h, 7 d, read-out: MOLM13 μM 7 d.
The mark [5] stands for this setting: 96 h, 4 d, read-out: MV4-11 IC50 μM 4 d.
[6] abbreviates: 168 h, 7 d, read-out: MV4-11 IC50 μM 7 d.
The mark [7] stands for this setting: OCI-AML-3, 96 h, 4 d, Table 3, read-out: OCI-AML3 IC50 μM 4 d.
Where [8] appears, read: OCI-AML-3, 168 h, 7 d, Table 3, read-out: OCI-AML3 IC50 μM 7 d.
Where [9] appears, read: 96 h, 4 d, read-out: U-937 IC50 μM 4 d.
Where [10] appears, read: 168 h, 7 d, read-out: U-937 IC50 μM 7 d.

With `C=CC(=O)Nc1ccc(CC(=O)Nc2ccc(-c3cc4c(N5CCOCC5)ncnc4[nH]3)cc2)nc1` [Compound B0700-314, N-(6-(2-((4-(4-morpholino-7H-pyrrolo[2,3-d]pyrimidin-6-yl)phenyl)amino)-2-oxoethyl)pyridin-3-yl)acrylamide], the IC50 in the assay with K-562 (setting [1]) was 0.55 µM; in the assay with K-562 (setting [2]) it was 0.468 µM; with MOLM-13 (setting [3]), 191 nM; in the assay on MOLM-13 (setting [4]) it was 178 nM; in the assay on MV4-11 (setting [5]), 0.145 µM; with MV4-11 (setting [6]) it was 0.129 µM. Further, the IC50 was found to be 0.145 µM in the assay with OCI-AML3 (setting [7]), 0.095 µM with OCI-AML3 (setting [8]), 0.288 µM in the assay with U-937 (setting [9]) and 0.158 µM in the assay on U-937 (setting [10]).
`C=CC(=O)Nc1ccc(CC(=O)NC2CCN(c3nc4c(N5CCOCC5)ncnc4[nH]3)CC2)cc1` [Compound B0700-315, N-(4-(2-((1-(6-morpholino-9H-purin-8-yl)piperidin-4-yl)amino)-2-oxoethyl)phenyl)acrylamide]: the IC50 is above 5 µM in the assay on K-562 (setting [1]); above 5 µM in the assay with K-562 (setting [2]); above 5000 nM with MOLM-13 (setting [3]); above 5000 nM with MOLM-13 (setting [4]); above 5 µM in the assay with MV4-11 (setting [5]); above 5 µM in the assay on MV4-11 (setting [6]). The IC50 with OCI-AML3 (setting [7]), in the assay on OCI-AML3 (setting [8]), with U-937 (setting [9]) and in the assay on U-937 (setting [10]) was above 5 µM in each case.
`C=CC(=O)N1CC(N2CCC(NC(=O)Nc3ccc(-c4cc5c(N6CCOCC6)ncnc5[nH]4)cc3)CC2)C1` [Compound B0700-330, 1-(1-(1-acryloylazetidin-3-yl)piperidin-4-yl)-3-(4-(4-morpholino-7H-pyrrolo[2,3-d]pyrimidin-6-yl)phenyl)urea]: the IC50 in the assay on K-562 (setting [1]) was 4.68 µM; in the assay with K-562 (setting [2]), 1 µM; in the assay with MOLM-13 (setting [3]), 631 nM; in the assay on MOLM-13 (setting [4]) it was 447 nM; with MV4-11 (setting [5]), 0.646 µM; in the assay with MV4-11 (setting [6]), 0.38 µM. For the same compound, the IC50 was determined as 1.05 µM with OCI-AML3 (setting [7]), 0.813 µM in the assay on OCI-AML3 (setting [8]), 1.62 µM with U-937 (setting [9]) and 1.05 µM in the assay on U-937 (setting [10]).
In the case of `C=CC(=O)N1CC(N2CCC(CC(=O)Nc3ccc(-c4cc5c(N6CCOCC6)ncnc5[nH]4)cc3)CC2)C1` [Compound B0700-331, 2-(1-(1-acryloylazetidin-3-yl)piperidin-4-yl)-N-(4-(4-morpholino-7H-pyrrolo[2,3-d]pyrimidin-6-yl)phenyl)acetamide], the IC50 in the assay with K-562 (setting [1]) came out at 0.676 µM; in the assay on K-562 (setting [2]) it was 0.129 µM; with MOLM-13 (setting [3]) it was 55 nM; in the assay on MOLM-13 (setting [4]), 30 nM; in the assay with MV4-11 (setting [5]), 0.047 µM; in the assay with MV4-11 (setting [6]) it was 0.034 µM. For the same compound, the IC50 with OCI-AML3 (setting [7]) came out at 0.251 µM; in the assay with OCI-AML3 (setting [8]) it was 0.115 µM; with U-937 (setting [9]), 0.347 µM; with U-937 (setting [10]), 0.065 µM.
Regarding `C=CC(=O)N1CC(N2CCC[C@H](NC(=O)Nc3ccc(-c4cc5c(N6CCOCC6)ncnc5[nH]4)cc3)C2)C1` [Compound B0700-332, (S)-1-(1-(1-acryloylazetidin-3-yl)piperidin-3-yl)-3-(4-(4-morpholino-7H-pyrrolo[2,3-d]pyrimidin-6-yl)phenyl)urea], the IC50 in the assay on K-562 (setting [1]) was 1.86 µM; in the assay on K-562 (setting [2]) it was 1.66 µM; in the assay on MOLM-13 (setting [3]), 324 nM; with MOLM-13 (setting [4]), 316 nM; with MV4-11 (setting [5]) it was 0.38 µM; in the assay on MV4-11 (setting [6]) it was 0.151 µM. Further, the IC50 came out at 0.955 µM with OCI-AML3 (setting [7]), 0.24 µM with OCI-AML3 (setting [8]), 1.2 µM in the assay with U-937 (setting [9]) and 0.457 µM in the assay on U-937 (setting [10]).
